Results reported in US20260167620A1, “MULTIFUNCTIONAL COMPOUND CAPABLE OF DEGRADING BTK KINASE, AND COMPOSITION AND USE” (HANGZHOU HEALZEN THERAPEUTICS CO., LTD., priority 2021, published 2026).

Experiments:
Mino cells = test: Inhibitory activity on Mino cell proliferation (MTS); assay type: cell-based; details: Homo sapiens, 72 h or 168 h
Protocol: (§1) The anti-tumor efficacy of the compounds was tested by measuring their inhibitory effects on OCI-LY10 and Mino cell proliferation. OCI-LY10 and Mino cells were cultured in RPM-1640 medium containing […] fetal calf serum. OCI-LY10 and Mino cells were digested, inoculated in a 96-well plate at a cell concentration of 10000 cells/well, and incubated overnight at 37° C., 5% CO2. Compounds of different concentrations (1000 nM, 4-fold dilution, 8 points) were added to the 96-well plate and incubated for 72 h or 168 h at 37° C. and […], and then 20 μL of MTS was added to each well. After incubation for 2 h, 25 μl of 10% SDS was added to each well to terminate the reaction. The absorbance at 490 nm and 650 nm were measured with a microplate reader. IC50 was calculated using GraphPad Prism 5.0.

OCI-LY10 cells = test: Inhibitory activity on OCI-LY10 cell proliferation (MTS); assay type: cell-based; details: Homo sapiens, 72 h or 168 h
Protocol: as §1

BTK = target: T1, BTK (Homo sapiens, UniProt Q06187); test: BTK degradation activity test in Mino cells (Westernblot or Elisa); assay type: cell-based; details: 24-72 h incubation
T1 construct: endogenous in cells; host or cells: Mino cells
T1 sequence (Q06187 whole entry): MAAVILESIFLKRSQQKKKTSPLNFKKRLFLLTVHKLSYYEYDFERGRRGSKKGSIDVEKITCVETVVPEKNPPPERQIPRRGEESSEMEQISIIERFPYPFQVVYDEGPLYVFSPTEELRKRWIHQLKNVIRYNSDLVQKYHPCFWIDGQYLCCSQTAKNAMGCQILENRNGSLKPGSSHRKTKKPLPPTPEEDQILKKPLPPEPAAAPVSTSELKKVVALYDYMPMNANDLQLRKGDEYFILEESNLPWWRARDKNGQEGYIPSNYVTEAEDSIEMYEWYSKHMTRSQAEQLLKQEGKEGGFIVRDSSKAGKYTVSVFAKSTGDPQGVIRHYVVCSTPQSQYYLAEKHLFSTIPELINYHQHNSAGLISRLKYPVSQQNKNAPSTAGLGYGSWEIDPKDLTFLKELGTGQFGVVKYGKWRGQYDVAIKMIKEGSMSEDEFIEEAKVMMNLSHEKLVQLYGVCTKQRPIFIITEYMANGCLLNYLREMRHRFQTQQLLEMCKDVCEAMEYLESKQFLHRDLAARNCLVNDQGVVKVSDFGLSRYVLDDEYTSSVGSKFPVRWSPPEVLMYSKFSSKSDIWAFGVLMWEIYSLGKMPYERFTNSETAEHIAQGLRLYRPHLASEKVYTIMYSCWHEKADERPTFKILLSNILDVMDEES
Protocol: The Mino cell line cells are 0.5˜1 million/well in 6-well plates. The compounds are diluted to different concentrations, added to the plate, and after 24-72 h of incubation, the cells are collected. After the cells were lysed, the total protein concentration in each well was determined with a BCA kit. The amount of BTK is determined using the Westernblot or Elisa method.

[1] = Liver microsomal metabolic stability, mouse; assay type: in vitro ADME; details: mouse liver microsomes, NADPH, 37° C.
Protocol: (§2) Under the condition of ice bath, 1 mg of human or Mouse liver microparticles was add to PBS (1 mL) buffer, then NADPH (20 μL) was added, and incubated at 37° C. for 5 min. 10 μL of the compound to be tested was added, then suck several times with a pipette and divide into 3 aliquots of 330 μL; each and then samples were taken at 0, 15, 30, 60 and 120 min respectively. 10 μL of the solution was taken with a pipette each time and added to 490 μL of the solution containing the internal standard compound. The resulting solution was vortexed and then placed on ice, and then sampling at another time point continues. All samples were centrifuged at 10,000 rpm for 10 min, and the supernatant was taken for LC/MS testing. The metabolism of the compound in liver microsomes was calculated based on the peak area.

[2] = Liver microsomal metabolic stability, human; assay type: in vitro ADME; details: human liver microsomes, NADPH, 37° C.
Protocol: as §2

Compound | IC50 (OCI-LY10 cells) | DC50 (BTK) | Thalf (min) Mouse [1] | Thalf (min) Human [2] | IC50 (Mino cells)
NC(=O)c1nnc(N2CCOCC2)nc1Nc1ccc(C2CCN(CC3CCN(c4ccc5c(c4)C(=O)N(C4CCC(=O)NC4=O)C5=O)C3)CC2)cc1 (stereo not shown) [Compound 019, 5-((4-(1-((1-(2-(2,6-dioxopiperidin-3-yl)-1,3-dioxoisoindolin-5-yl)pyrrolidin-3-yl)methyl)piperidin-4-yl)phenyl)amino)-3-morpholino-1,2,4-triazine-6-carboxamide] | 1.1 nM | < 10 nM |  |  | 2.13 nM
CC(=O)N[C@@H]1CCCN(c2nnc(C(N)=O)c(Nc3ccc(C4CCN(CC5CCN(c6ccc7c(c6)C(=O)N(C6CCC(=O)NC6=O)C7=O)CC5)CC4)cc3)n2)C1 (stereo partly drawn) [Compound 023, 3-((R)-3-acetamidopiperidin-1-yl)-5-((4-(1-((1-(2-(2,6-dioxopiperidin-3-yl)-1,3-dioxoisoindolin-5-yl)piperidin-4-yl)methyl)piperidin-4-yl)phenyl)amino)-1,2,4-triazine-6-carboxamide] | 0.69 nM | < 10 nM | 59 min | 20 min | 6.75 nM
NC(=O)c1nnc(N2CCCCC2)nc1Nc1ccc(N2CCC(CN3CCN(c4ccc(C5CCC(=O)NC5=O)cn4)CC3)CC2)c(F)c1 (stereo not shown) [Compound 053, 5-((4-(4-((4-(5-(2,6-dioxopiperidin-3-yl)pyridin-2-yl)piperazin-1-yl)methyl)piperidin-1-yl)-3-fluorophenyl)amino)-3-(piperidin-1-yl)-1,2,4-triazine-6-carboxamide] | 1.73 nM | < 10 nM |  |  | 
Cc1cc(N2CCN(CC3CCN(c4ccc(Nc5nc(N6CCCCC6)nnc5C(N)=O)cc4F)CC3)CC2)ccc1N1CCC(=O)NC1=O [Compound 076, 5-((4-(4-((4-(4-(2,4-dioxotetrahydropyrimidin-1(2H)-yl)-3-methylphenyl)piperazin-1-yl)methyl)piperidin-1-yl)-3-fluorophenyl)amino)-3-(piperidin-1-yl)-1,2,4-triazine-6-carboxamide] | 1.09 nM | < 10 nM |  |  | 
NC(=O)c1nnc(N2CCCCC2)nc1Nc1ccc(N2CCN(CC3CCN(c4ccc(N5CCC(=O)NC5=O)c(F)c4)CC3)CC2)c(F)c1 [Compound 078, 5-((4-(4-((1-(4-(2,4-dioxotetrahydropyrimidin-1(2H)-yl)-3-fluorophenyl)piperidin-4-yl)methyl)piperazin-1-yl)-3-fluorophenyl)amino)-3-(piperidin-1-yl)-1,2,4-triazine-6-carboxamide] | 0.7 nM | < 10 nM |  |  | 
NC(=O)c1nnc(N2CCCCC2)nc1Nc1ccc(N2CCN(CC3CCN(c4ccc(C(=O)NC5CCC(=O)NC5=O)c(F)c4)CC3)CC2)c(F)c1 (stereo not shown) [Compound 083, 5-((4-(4-((1-(4-((2,6-dioxopiperidin-3-yl)carbamoyl)-3-fluorophenyl)piperidin-4-yl)methyl)piperazin-1-yl)-3-fluorophenyl)amino)-3-(piperidin-1-yl)-1,2,4-triazine-6-carboxamide] | 1.24 nM | < 10 nM |  |  | 
NC(=O)c1nnc(N2CCCCC2)nc1Nc1ccc(N2CCN(CC3CCN(c4ccc(N5CCC(=O)NC5=O)cc4F)CC3)CC2)c(F)c1 [Compound 086, 5-((4-(4-((1-(4-(2,4-dioxotetrahydropyrimidin-1(2H)-yl)-2-fluorophenyl)piperidin-4-yl)methyl)piperazin-1-yl)-3-fluorophenyl)amino)-3-(piperidin-1-yl)-1,2,4-triazine-6-carboxamide] | 0.7 nM | < 10 nM |  |  | 

Continued, in another order:

IC50 (OCI-LY10 cells) | DC50 (BTK) | Thalf (min) Mouse [1] | Thalf (min) Human [2] | Compound | IC50 (Mino cells)
0.18 nM | < 10 nM |  |  | NC(=O)c1nnc(N2CCCCC2)nc1Nc1ccc(C2CCN(CC3CCN(c4ccc5c(c4)C(=O)N(C4CCC(=O)NC4=O)C5=O)C3)CC2)nn1 (stereo not shown) [Compound 004, 5-((6-(1-((1-(2-(2,6-dioxopiperidin-3-yl)-1,3-dioxoisoindolin-5-yl)pyrrolidin-3-yl)methyl)piperidin-4-yl)pyridazin-3-yl)amino)-3-(piperidin-1-yl)-1,2,4-triazine-6-carboxamide] | 1.15 nM
0.41 nM | < 10 nM |  |  | NC(=O)c1nnc(N2CCCCC2)nc1Nc1cnc(C2CCN(CC3CCN(c4ccc5c(c4)C(=O)N(C4CCC(=O)NC4=O)C5=O)C3)CC2)nc1 (stereo not shown) [Compound 005, 5-((2-(1-((1-(2-(2,6-dioxopiperidin-3-yl)-1,3-dioxoisoindolin-5-yl)pyrrolidin-3-yl)methyl)piperidin-4-yl)pyrimidin-5-yl)amino)-3-(piperidin-1-yl)-1,2,4-triazine-6-carboxamide] | 2.47 nM
0.67 nM | < 10 nM |  |  | NC(=O)c1nnc(N2CCCCC2)nc1Nc1ccc(C2CCN(CC3CCN(c4ccc(NC5CCC(=O)NC5=O)cn4)C3)CC2)cc1 (stereo not shown) [Compound 014, 5-((4-(1-((1-(5-((2,6-dioxopiperidin-3-yl)amino)pyridin-2-yl)pyrrolidin-3-yl)methyl)piperidin-4-yl)phenyl)amino)-3-(piperidin-1-yl)-1,2,4-triazine-6-carboxamide] | 4.14 nM
0.32 nM | < 10 nM | 49 min | 37 min | CC(=O)N[C@@H]1CCCN(c2nnc(C(N)=O)c(Nc3ccc(C4CCN(CC5CCN(c6ccc7c(c6)C(=O)N(C6CCC(=O)NC6=O)C7=O)C5)CC4)cc3)n2)C1 (stereo partly drawn) [Compound 016, 3-((R)-3-acetamidopiperidin-1-yl)-5-((4-(1-((1-(2-(2,6-dioxopiperidin-3-yl)-1,3-dioxoisoindolin-5-yl)pyrrolidin-3-yl)methyl)piperidin-4-yl)phenyl)amino)-1,2,4-triazine-6-carboxamide] | 1.45 nM
0.64 nM | < 10 nM |  |  | COc1cc(N2CCC(CN3CCN(c4ccc(Nc5nc(N6CCCCC6)nnc5C(N)=O)cc4F)CC3)CC2)ccc1N1CCC(=O)NC1=O [Compound 082, 5-((4-(4-((1-(4-(2,4-dioxotetrahydropyrimidin-1(2H)-yl)-3-methoxyphenyl)piperidin-4-yl)methyl)piperazin-1-yl)-3-fluorophenyl)amino)-3-(piperidin-1-yl)-1,2,4-triazine-6-carboxamide] | 2.3 nM
0.66 nM | < 10 nM |  |  | NC(=O)c1nnc(N2CCCCC2)nc1Nc1ccc(N2CCN(CC3CCN(c4ccc(NC5CCC(=O)NC5=O)c(F)c4)CC3)CC2)c(F)c1 (stereo not shown) [Compound 088, 5-((4-(4-((1-(4-((2,6-dioxopiperidin-3-yl)amino)-3-fluorophenyl)piperidin-4-yl)methyl)piperazin-1-yl)-3-fluorophenyl)amino)-3-(piperidin-1-yl)-1,2,4-triazine-6-carboxamide] | 
0.39 nM | < 10 nM |  |  | NC(=O)c1nnc(N2CCOCC2)nc1Nc1ccc(N2CCN(CC3CCN(c4ccc(C(=O)NC5CCC(=O)NC5=O)nc4)CC3)CC2)c(F)c1 (stereo not shown) [Compound 100, 5-((4-(4-((1-(6-((2,6-dioxopiperidin-3-yl)carbamoyl)pyridin-3-yl)piperidin-4-yl)methyl)piperazin-1-yl)-3-fluorophenyl)amino)-3-morpholino-1,2,4-triazine-6-carboxamide] | 3.83 nM
